In data set [1] the test system is HT-29. The experiment in a line: Cytotoxicity against human HT-29 cells after 7 days. In kind it is functional. Conditions: for EC50: Homo sapiens, HT-29, 168 h, read-out: ED50 (the source's name).
A short description of data set [2]: Toxicity in brine shrimp. Conditions: artemia, in vivo. In kind it is organism-based.
The test system of data set [3] is MCF7. The experiment in a line: Cytotoxicity against human MCF7 cells after 7 days. In kind it is functional. Conditions: MCF7, 168 h, read-out: ED50 (the source's name).
Data set [4] deals with A549. Description: Cytotoxicity against human A549 cells after 7 days. In kind it is functional. To be noted: for EC50: Homo sapiens, A549, 168 h, read-out: ED50 (the source's name).

For seven compounds, EC50, LC50 and ED50 results are on record in ChEMBL document CHEMBL1149751, “Bioactive constituents from the twigs of Asimina parviflora” (J Nat Prod, 1992).

The structures appear in SMILES notation. Values after ≈ are worked out from the molar mass of the structure shown.

Consider `CCCCCCCCCCCCCCC/C=C\CCCCC(N)=O`, for which the figures for the EC50 in data set [1], in data set [3] and in data set [4] were < 0.01 µg/mL, 2.91 µg/mL (≈ 8.62 µM) and 3.16 µg/mL (≈ 9.36 µM), respectively. In data set [2], this compound had an LC50 of 2.45 µg/mL (≈ 7.26 µM).

As for `COc1c(OC)c2c(C)cc3c(O)cccc3c2[nH]c1=O` [ASIMICILONE], the EC50 in data set [1] was 3.25 µg/mL (≈ 11.4 µM); in data set [3], 7.22 µg/mL (≈ 25.3 µM); in data set [4] it was 2.13 µg/mL (≈ 7.47 µM). This compound registered an LC50 in data set [2] of 2.15 µg/mL (≈ 7.54 µM).

For the compound `CCCCCCCCCCC(O)C1CCC(C2CCC(C(O)CCCCCCCC[C@H](O)CC3=C[C@@H](C)OC3=O)O2)O1` (stereo partly drawn) [ASIMICIN], the figures for the ED50 in data set [1] and in data set [4] were <1 ×10⁻¹⁵ ug/ml and 8.43 ×10⁻⁴ ug/ml, respectively.

For `CCCCCCCCCC[C@@H](O)[C@H]1CC[C@H]([C@H]2CC[C@H]([C@H](O)CCCCCCCCCC[C@@H](O)CC3=C[C@H](C)OC3=O)O2)O1` [ASIMICIN], the LC50 in data set [2] is 0.025 µg/mL (≈ 0.0401 µM).

Consider `COc1cccc2c1C(=O)c1c(O)c3c(c(O)c1C2=O)C[C@@](O)(C(=O)CO)C[C@@H]3O[C@H]1C[C@H](N)[C@H](O)[C@H](C)O1` [DOXORUBICIN], for which the EC50 in data set [1] turned out to be 0.00445 µg/mL (≈ 0.00819 µM); in data set [3] it was 0.231 µg/mL (≈ 0.425 µM). Also, in data set [2], the LC50 was determined as 0.088 µg/mL (≈ 0.162 µM). In addition, the ED50 in data set [4] is listed as 5.04 ×10⁻⁴ ug/ml.

Consider `CC[C@H](CC[C@@H](C)[C@H]1CC[C@H]2[C@@H]3CC=C4C[C@@H](O[C@@H]5O[C@H](CO)[C@@H](O)[C@H](O)[C@H]5O)CC[C@]4(C)[C@H]3CC[C@]12C)C(C)C` [SITOGLUSIDE], for which the EC50 amounted to 0.444 µg/mL (≈ 0.77 µM) in data set [1], 44.4 µg/mL (≈ 77 µM) in data set [3] and 4.73 µg/mL (≈ 8.2 µM) in data set [4]. Moreover, the LC50 in data set [2] was 0.14 µg/mL (≈ 0.243 µM).

In the case of `COc1cc([C@H]2OC[C@H]3[C@@H]2CO[C@@H]3c2cc(OC)c(O)c(OC)c2)cc(OC)c1O` [SYRINGARESINOL], the EC50 in data set [1] stood at 0.227 µg/mL (≈ 0.542 µM); in data set [3], 30.3 µg/mL (≈ 72.4 µM); in data set [4], 13.9 µg/mL (≈ 33.3 µM). Besides, in data set [2], the LC50 was 0.65 µg/mL (≈ 1.55 µM).
